Results from patent US5821252A, “Method of blocking nerve conduction by treatment with branched-chain esters of 2-[4-(2-piperidine-ethoxy)-benzoyl]-benzoic acid and pharmaceutically acceptable salts thereof” (priority 1988, dated 1998).
Read-outs that look alike come from different tables or passages of the source.

What was measured:
sciatic nerve = test: Conduction block anaesthesia in the rat, injection near sciatic nerve; type: in vivo; conditions: for blockade of nerve conduction: injected near the sciatic nerve, hydrochloride
Protocol: Conduction block anaesthesia was produced in the rat using compound II [(Isopropyl 2-(4-2-piperidinoethoxy)-benzoyl)benzoate hydrochloride] according to the method of Traunt. (Traunt, A. P. Arch. Int. Phamacodyn. 115:483-497,1957).
The conduction block produced was of long duration and required a number of days for complete recovery. A dose of 20 mg/kg compound II blocked nerve conduction in the rat for about 33 days. Ten mg/kg of compound II blocked the nerve for 18±2 days (n=25). In comparison, 10 mg/kg of lignocaine, a standard local anesthetic, produced conduction block for only 0.086±0.01 days (n-10). […] This long lasting but reversible blockade of nerve conduction is of significant interest in the treatment of cancers, neuralgias and post-surgical states.

Porcine liver esterase = test: Enzymatic hydrolysis rates by porcine liver esterase; type: in vitro ADME; conditions: 1 mM, pH 8.0, 37° C.
Protocol: Porcine liver esterase (0.5 U=2 μg) was preincubated in 40 mM Tris-HCl buffer, pH 8.0, at 37° C. for 5 min. The reaction was initiated with the addition of the test compound (final concentration, 1 mM) in the final volume of 250 μl. Enzyme reaction was terminated at different time intervals by the addition of 60 μl of 1M acetic acid. The solution was made alkaline (pH 10.5) by adding 0.4M NaOH and the alkaline solution was rapidly extracted (three times) with 2.5 ml of chloroform. An aliquot of the aqueous supernatant was diluted with double distilled water and the absorbance was measured at 290 nm. Amount of test compound III (molar extinction=14,400) formed was calculated.

Guinea pig ileum = test: Antispasmodic activity in isolated guinea pig ileum (acetylcholine contraction); type: cell-based; conditions: for Duration of action: isolated guinea pig ileum
Protocol: Small intestines obtained from freshly sacrificed guinea pigs (weight range, 200-400 g) of either sex were cleaned and stored in tyrode solution. A piece of ileum was mounted in an organ bath containing tyrode solution at 37° C. and maintained at a tension of 0.5 to 1.0 g. The solution was continuously aerated with compressed air. After an initial equilibration period, a sub-maximal dose of acetylcholine required for measurable contraction was standardized. Tension changes were monitored using an isotonic strain gauge attached to the tissue and the responses were recorded on a strip chart recorder. Antispasmodic activity of test compounds at different concentrations was followed and the IC50, values were calculated from dose response curves.

small intestine motility [1] = test: Small intestinal motility in the conscious dog, phase I and II activity; type: in vivo; conditions: for rank order of potency: spontaneous motility of small intestine, conscious dog
From the text: (§1) Male dogs (THG Tierhandelsgesellschaft Rodenbach, Hoe: BEAK (Beagle)) weighing 15-20 kg were used in all experiments. At least 4 weeks prior to the experiment the dogs had been equipped with miniaturized strain gage force transducers (T1-T3) (2×4 mm), sutured onto the gut at the locations mentioned below. The cables of the transducers were embedded into a cannula which carried the plug for external electric connection. This stainless steel cannula was implanted into the abdominal wall, close below the costal arch. Each transducer was connected to a measuring bridge. The signals were on line stored using a HP 9835 A computer, allowing later analysis of the data.
(§2) 18 hours prior to the experiment food was withdrawn from the animals, water ad libidum. All experiments started between 08:00 and 09:00 am.
(§3) The following motility parameters were determined:
The integral under the concentration curves at 10 min intervals (mN×10min) as an index of phase I+II activity. The duration of drug action (min.)
(§4) The duration of the interdigestive migrating complex (IMC) (min) as a measure of phase III activity.
(§5) Test Compound II was given at doses of 0.2 and 0.5 mg/kg i.v. or 5 mg/kg i.g., dissolved in saline, in a volume of 1 ml/kg (i.v.) or 2 ml/kg (i.g.), n=3-6. Control n=26.
Reference substances: Buscopan, pitofenon.
Buscopan was given at doses of 0.3 and 1 mg/kg i.v., dissolved in saline, in a volume of 1 ml/kg, n=4-6. Pitofenone was given at doses of 1 mg/kg i.v., dissolved in saline, in a volume of 1 ml/kg, n=8.
1D50 -values were determined graphically.

small intestine motility [2] = test: Small intestinal motility in the conscious dog, phase III activity, intragastrical; type: in vivo; conditions: 5 mg/kg intragastrically
From the text: as §1, §2, §3, §4, §5

colonic motility = test: Motility of the large bowel (colonic motor complex) in conscious dogs; type: in vivo, dog
From the text: Male dogs (THG Tierhandelsgesellschaft Rodenbach, Hoe:BEAK (Beagle)) weighing 15-20 kg were used in all experiments.
as §1, with “At” for “Male dogs (THG Tierhandelsgesellschaft Rodenbach, Hoe: BEAK (Beagle)) weighing 15-20 kg were used in all experiments. At”, “prior” for “prior to”, “(T1-T2)” for “(T1-T3)”, “on-line” for “on line”, “computer, thereby” for “computer,”
T1: Colon ascendens 10 cm aborafrom the ileoceval valve (ICV)
T2: Colon transversum 25 cm aborad from the ICV
18 hours prior to the experiment food was withdrawn from the animals, water ad libidum All experiments started between 08:00 and 09:00 am.
The following parameters were determined:
The duration of the cycle (min)
The duration of the colonic motor complex (CMC) (min)
The maximal height of the concentrations (AU: arbitrary units)
Data from the two recording sites (T1-T2) were pooled. […]
Statistical methods: For detection of significant differences (p<0.05) the unpaired t-test was used. Only significant differences were indicated by *.

[3] = cited from earlier work

Row | μmol test compound III formed per mg protein per ml (Porcine liver esterase; time 0.0 hours) | μmol test compound III formed per mg protein per ml (Porcine liver esterase; time 0.5 hours) | μmol test compound III formed per mg protein per ml (Porcine liver esterase; time 2.0 hours) | μmol test compound III formed per mg protein per ml (Porcine liver esterase; time 3.5 hours) | SMILES | duration of nerve conduction block (sciatic nerve; 10 mg/kg near sciatic nerve) [days] | Duration of action (Guinea pig ileum) [min] | rank order of potency (small intestine motility [1]) | other results
1 | – | – | – | – | CCN(CC)CC(=O)Nc1c(C)cccc1C [lignocaine] | 0.086 ± 0.01 | – | – | –
2 | 0.00 μmol per mg protein per ml | 0.05 μmol per mg protein per ml | 0.10 μmol per mg protein per ml | 0.10 μmol per mg protein per ml | CC(C)OC(=O)c1ccccc1C(=O)c1ccc(OCCN2CCCCC2)cc1.Cl [Test compound II, Isopropyl-2-[4-(2-piperidino-ethoxy)-benzoyl]-benzoate hydrochloride] | 18 ± 2 | > 7.0 | Test Compound II>buscopan>pitofenon | duration of inhibitory effect (small intestine motility [1]; 0.5 mg/kg i.v.): approximately one; inhibition of phase III activity (small intestine motility [2]): a pronounced inhibition of phase III activity; effect on colonic motility (colonic motility; 1 mg/kg i.g.): uneffective; inhibition of colonic motility (colonic motility; 4 mg/kg i.g. (so in the source)): inhibited colonic motility (CMC in the conscious dog completely; duration of nerve conduction block (sciatic nerve; 20 mg/kg near sciatic nerve): about 33 days; blockade of nerve conduction (sciatic nerve; listed as Compound II): dose-dependent blockade of nerve conduction; blockade of nerve conduction (sciatic nerve; listed as compound II): reversible blockade of nerve conduction lasting for hours to days
3 | 0.00 μmol per mg protein per ml | 0.50 μmol per mg protein per ml | 1.62 μmol per mg protein per ml | 2.78 μmol per mg protein per ml | COC(=O)c1ccccc1C(=O)c1ccc(OCCN2CCCCC2)cc1.Cl [Test compound I, Methyl-2-[4-(2-piperidino-ethoxy)-benzoyl]-benzoate hydrochloride] | – | < 1.5 | Test Compound II>buscopan>pitofenon | IC50 (Guinea pig ileum; Cavia porcellus, acetylcholine contraction, isolated ileum, 37° C.): 1 µg/mL; antispasmodic activity ([3]; administered intravenously): potent antispasmodic activity; antispasmodic activity ([3]; administered orally): considerably reduced; metabolism of methyl ester to the corresponding acid ([3]; oral): rapid metabolism of the methyl ester to the corresponding acid
4 | – | – | – | – | CCCC[N+]1(C)[C@@H]2C[C@@H](OC(=O)[C@H](CO)c3ccccc3)C[C@H]1[C@@H]1O[C@@H]12 (some centres unmarked) [Buscopan] | – | – | Test Compound II>buscopan>pitofenon | Duration of action (small intestine motility [1]; 1 mg/kg i.v., until postdrug values reached 90% or more of predrug): 30 min; Max. height of CMC (colonic motility; 3 mg/kg intragastrically): 35 ± 17 AU; effect on colonic motility (colonic motility; 3 and 10 mg/kg i.g.): no effect on colonic motility
